Test results reported in ChEMBL document CHEMBL1201862, “PubChem BioAssay data set” (2004).
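Tested at 5 concentrations; 48 h exposure; 96-well plates; endpoints linearly interpolated, else capped at highest concentration. At the GI50, growth is halved.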 Calls of active or inactive are those of the source. Cut-off read from the data, not from the text of the source: active = GI50 up to about 1.1 µM and inactive = higher.

How the values were obtained:
Assay in all cases: inhibition of tumour cell growth, NCI panel, 48 h
A498 = tested on: A498
COLO 205 = tested on: COLO 205
HCT-15 = tested on: HCT-15
KM12 = tested on: KM12
Malme-3M = tested on: Malme-3M
NCI-H23 = tested on: NCI-H23
OVCAR-3 = tested on: OVCAR-3
OVCAR-4 = tested on: OVCAR-4
OVCAR-8 = tested on: OVCAR-8
SK-MEL-28 = tested on: SK-MEL-28
SK-MEL-5 = tested on: SK-MEL-5
SK-OV-3 = tested on: SK-OV-3
SN12C = tested on: SN12C
SW-620 = tested on: SW-620
UO-31 = tested on: UO-31
EKVX = tested on: EKVX
MOLT-4 = tested on: MOLT-4

Row | Structure (SMILES) | GI50 (A498) | GI50 (COLO 205) | GI50 (HCT-15) [µM] | GI50 (KM12) | GI50 (Malme-3M) | GI50 (NCI-H23) | GI50 (OVCAR-3) | GI50 (OVCAR-4) | GI50 (OVCAR-8) | GI50 (SK-MEL-28) | GI50 (SK-MEL-5) | GI50 (SK-OV-3) | GI50 (SN12C) | GI50 (SW-620) | GI50 (UO-31) | GI50 (EKVX) | GI50 (MOLT-4)
1 | Cc1ccc(NC(=O)/C(=N\Nc2ccc([N+](=O)[O-])cc2[N+](=O)[O-])C2C(=O)NC(=O)NC2=O)cc1 | > 100 µM (inactive) | > 100 µM (inactive) | 6.31 | 53.2 µM (inactive) | > 100 µM (inactive) | > 100 µM (inactive) | > 100 µM (inactive) | 65.5 µM (inactive) | 55.7 µM (inactive) | > 100 µM (inactive) | 33.2 µM (inactive) | > 100 µM (inactive) | > 100 µM (inactive) | 45.7 µM (inactive) | 15.5 µM (inactive) |  | 
2 | CCOC(=O)C1S(=O)(=O)OCCOS1(=O)=O |  | > 100 µM (inactive) |  | > 100 µM (inactive) | > 100 µM (inactive) | > 100 µM (inactive) | > 100 µM (inactive) | > 100 µM (inactive) | > 100 µM (inactive) | > 100 µM (inactive) | > 100 µM (inactive) | > 100 µM (inactive) | > 100 µM (inactive) | > 100 µM (inactive) | > 100 µM (inactive) | > 100 µM (inactive) | > 100 µM (inactive)
3 | Cc1ccc(NC(=O)c2cc3cc(/N=N/c4ccc(Br)cc4)ccc3oc2=O)cc1 | 46.3 µM (inactive) | > 100 µM (inactive) | 46 | 47.6 µM (inactive) | > 100 µM (inactive) | > 100 µM (inactive) |  | > 100 µM (inactive) |  | > 100 µM (inactive) | > 100 µM (inactive) | > 100 µM (inactive) | > 100 µM (inactive) | 86.9 µM (inactive) |  |  | 83 µM (inactive)
4 | O=C(O)c1ccccc1C1c2ccc(Cl)cc2Oc2cc(Cl)ccc21 |  | > 100 µM (inactive) | > 100 | > 100 µM (inactive) | > 100 µM (inactive) | > 100 µM (inactive) | > 100 µM (inactive) | > 100 µM (inactive) | > 100 µM (inactive) | > 100 µM (inactive) | > 100 µM (inactive) | > 100 µM (inactive) | > 100 µM (inactive) | > 100 µM (inactive) | > 100 µM (inactive) | > 100 µM (inactive) | > 100 µM (inactive)
5 | COc1cccc(/C=C\c2cc(OC)c(OC)c(OC)c2)c1 |  | 0.807 µM (active) | 0.693 | 0.543 µM (active) | 0.585 µM (active) | 1.32 µM (inactive) | 0.506 µM (active) | 14.4 µM (inactive) | 3.49 µM (inactive) | 0.507 µM (active) |  | 4.38 µM (inactive) | 4.08 µM (inactive) | 0.656 µM (active) | 4.48 µM (inactive) | 3.49 µM (inactive) | 0.379 µM (active)
6 | N#Cc1ccccc1NC(=O)C(=O)C(C(=O)c1ccccc1-c1ccccc1)C1OC(=O)c2ccccc21 (centres undefined) | 25.4 µM (inactive) | 21.1 µM (inactive) |  | 18.1 µM (inactive) | 10.4 µM (inactive) | 11.8 µM (inactive) | 15.8 µM (inactive) |  | 20.3 µM (inactive) | 18.2 µM (inactive) | > 100 µM (inactive) | 41.2 µM (inactive) |  | 29 µM (inactive) | > 10 µM (inactive) | 18.5 µM (inactive) | 13.9 µM (inactive)
7 | Cc1ccc(/C=C/C(=O)c2sc(-n3nc(-c4ccccc4)cc3-c3ccccc3)nc2C)cc1 | > 100 µM (inactive) | > 100 µM (inactive) | 57.7 | > 100 µM (inactive) | > 100 µM (inactive) | > 100 µM (inactive) | > 100 µM (inactive) |  | > 100 µM (inactive) | > 100 µM (inactive) | 71.1 µM (inactive) | > 100 µM (inactive) | > 100 µM (inactive) | > 100 µM (inactive) | > 100 µM (inactive) | 34.8 µM (inactive) | 8.39 µM (inactive)
